In patent US10080366B2, “Agent for increasing sugar content in fruit” (RIKEN, priority 2012, dated 2018):
Read-outs that look alike come from different tables or passages of the source.

Assays:
[1] = tested on: fruit of grape (variety: Steuben); conditions: 10 g/L
Method: An agent for increasing a sugar content in a fruit (containing Sorbon T-20 as a spreader/sticker at a final concentration of 200 μL/L) diluted with water to contain potassium hydrogen carbonate at 10 g/L was prepared. The mass of fruit of grape (variety: Steuben) purchased on the market was measured. Then, the prepared agent for increasing a sugar content in a fruit was applied by spraying to the fruit of grape. The fruit of grape was allowed to stand in an air-conditioned greenhouse (temperature: 25° C.), and the mass was measured over time (date of application: Feb. 7, 2011). In addition, as a control, the mass of untreated grape was measured on each of the dates of measurement in the same manner.

[2] = tested on: grapes (varieties: Chardonnay, Pinot noir, Merlot, and Cabernet Sauvignon); conditions: for sugar content in fruit compared with untreated: 3000 L/ha, entire vines, repeated, all four varieties
Method: To the entire vines including leaves and stems of grapes (varieties: Chardonnay, Pinot noir, Merlot, and Cabernet Sauvignon, 7 years old) in a farm field, an agent (containing Sorbon T-20 as a spreader/sticker at a concentration of 200 μL/L) for increasing a sugar content in a fruit diluted with water to have a potassium hydrogen carbonate concentration of 5 g/L or 10 g/L was applied in a sufficient amount (3000 L/ha (in this case, the amount of potassium hydrogen carbonate was 15 kg/ha for the 5 g/L sample or 30 kg/ha for the 10 g/L sample) each time. The application was repeatedly conducted at intervals of approximately 2 weeks or approximately 1 week as shown in FIGS. 1 to 4. The sugar concentration in the fruit was measured over time. As a control, unapplied vines were provided. The sampling was started before the first application, and a sample was collected before each application, and measured for the sugar content. Three vines were used for each treated group. Note that the expected harvest dates were September 20 for Chardonnay, October 10 for Merlot, October 20 for Cabernet Sauvignon, and September 30 for Pinot noir.
For the measurement of the sugar content, three clusters were taken from each of the treated vines on each of the dates of measurement, and the juice was squeezed and measured for the Brix sugar content (%) with a refractometer for sugar content (manufactured by Atago Co., Ltd.). Likewise, the acidity (%) was also measured with an acidity meter (manufactured by Atago Co., Ltd.).

[3] = tested on: clusters of grape (variety: Crimson); assay: Estimated transpiration ratio of grape clusters (Example 9); type: in vivo; conditions: 10 g/L; 8 days after treatment
Pinot noir = assay: Acceptability of fruit for wine (Example 11); type: in vivo, grape; conditions: Example 1 sample
Source text: As in the case where agriculture workers check whether or not a berry can be used for wine, the criteria of the acceptability were based the appearance (appearance associated with mold, rot, or the like, whether or not the fruit juice or fruit pulp was lost, and the like), taste (whether or not the berry was normal, when eaten, and the like), and odor (whether or not a foreign odor or the like was present). A berry having no problem in terms of any of the appearance, taste, and odor was determined to be acceptable, and a berry having any problem was determined to be not acceptable.

[4] = tested on: harvested fruit of grape (variety: Barikan); conditions: for Sugar content (%) on date of application (Jun. 2): before application
Method: The fruit of grape was maintained in an air-conditioned greenhouse (temperature: 25° C.), and measured for the mass over time. The sugar content of the fruit was measured before the application and 8 days after the application with a sugar content meter. Next, on the assumption that the change in the mass of the fruit was entirely due to the change in water content, calculated values of the amount of decrease in mass and the sugar content on the date (June 2) of the application were determined […] by using the following calculation formula. (Calculated as follows: the sugar content (%) calculated value))=the sugar content (%) before application×the mass (g) on the date of application/the mass (g) on the date of measurement))

Cherry (Sato Nishiki) = conditions: 5 g/L, three times at intervals of 7 days; 28 days after first application
Source text: The water-soaked symptom in cherry is known to be caused by calcium deficiency. In this respect, an investigation was made as to whether or not the degree of occurrence of water-soaked symptom 28 days after the date of the first application was different between untreated cherries and cherries to which an aqueous potassium hydrogen carbonate solution (5 g/L) was applied three times at intervals of 7 days one month before the harvest time. […] The occurrence (%) of water-soaked symptom=the number of cherries in which the water-soaked symptom occurred/the number of cherries tested×100

Mikan = conditions: dilution ratio 100 (10 g/L); 6 days after treatment
Tomato = conditions: dilution ratio 100 (10 g/L); 6 days after treatment
[5] = 10 g/L, 25° C., mass 100 g on date of application

## O=C([O-])O.[K+] [Potassium hydrogen carbonate, potassium hydrogen carbonate]
[1]; 7 days
  increase of amount of transpiration in comparison with untreated: approximately 25%
[1]; 7 days, decrease in mass assumed to be transpiration
  water lost per 100 g of grape: approximately 25 ml
[1]; Feb. 8
  mass of fruit per 100 g on date of application, 1 day later: 96.2 g
[1]; Feb. 9
  mass of fruit per 100 g on date of application, 2 days later: 92.1 g
[1]; Feb. 10
  mass of fruit per 100 g on date of application, 3 days later: 88.6 g
[1]; Feb. 14
  mass of fruit per 100 g on date of application, 7 days later: 74.9 g
[1]; assuming 15% on date of application
  sugar content 7 days later (calculated): 20.0%
[2]; 5 g/L or 10 g/L
  acidity compared with untreated: kept equal to or slightly higher than that of the untreated group
[2]; 5 g/L
  sugar content in fruit compared with untreated: greater increase in sugar content than the untreated fruit of grape
[2]; 10 g/L
  sugar content in fruit compared with untreated: greater increase in sugar content than the untreated fruit of grape
[3]
  Estimated transpiration ratio (%) Average: 31%
  Estimated transpiration ratio (%) First: 33%
  Estimated transpiration ratio (%) Second: 28%
Pinot noir; 5 g/L
  Acceptable ratio (%) of fruit: 75%
Pinot noir; 10 g/L
  Acceptable ratio (%) of fruit: 80%
[4]; 10 g/L
  decrease of mass of fruit in 8 days (June 2 to June 10): 27.3%
[4]; 10 g/L, 25° C.
  Sugar content (%) 8 days later, actually measured value: 24.0%
[4]; 10 g/L, 25° C., listed as potassium hydrogen carbonate
  Sugar content (%) 8 days later, actually measured value: 24%
[4]; [5]
  Mass (g) 6 days later (Jun. 8): 79.4 g
  Mass (g) 8 days later (Jun. 10): 72.7 g
[4]; 10 g/L, calculated from decrease in mass
  Sugar content (%) 8 days later, calculated value: 24.8%
[4]
  Sugar content (%) on date of application (Jun. 2): 18.0%
[4]; listed as potassium hydrogen carbonate
  Sugar content (%) on date of application (Jun. 2): 18%
Cherry (Sato Nishiki)
  Occurrence (%) of water-soaked symptom: 7%
Mikan
  Ratio (%) of decrease in body weight of fruit: 12.6%
Tomato
  Ratio (%) of decrease in body weight of fruit: 14.8%
